From patent EP1935887A1, “Heterocyclic substituted carbonyl derivatives and their use as dopamine D3 receptor ligands” (Aventis Pharmaceuticals Inc., priority 2001, dated 2002)

Each compound was assayed against T1, Cloned Human Dopamine D3 Receptors (Homo sapiens, UniProt P35462) (assay: [N-Methyl-3H]Spiroperidol binding to cloned human dopamine D3 receptors). Conditions: D3 Ki (nM).
T1 construct: expressed in transfected cells; membrane homogenate
How it was run: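 [N-methyl-3H]spiroperidol binding is run in Tris buffer, pH 7.7. Receptor source is membranes of a stably transfected, high-expressing CHO clone carrying the human D3 gene, kept at -80°C in 10% DMSO.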

T1 sequence (P35462 whole entry): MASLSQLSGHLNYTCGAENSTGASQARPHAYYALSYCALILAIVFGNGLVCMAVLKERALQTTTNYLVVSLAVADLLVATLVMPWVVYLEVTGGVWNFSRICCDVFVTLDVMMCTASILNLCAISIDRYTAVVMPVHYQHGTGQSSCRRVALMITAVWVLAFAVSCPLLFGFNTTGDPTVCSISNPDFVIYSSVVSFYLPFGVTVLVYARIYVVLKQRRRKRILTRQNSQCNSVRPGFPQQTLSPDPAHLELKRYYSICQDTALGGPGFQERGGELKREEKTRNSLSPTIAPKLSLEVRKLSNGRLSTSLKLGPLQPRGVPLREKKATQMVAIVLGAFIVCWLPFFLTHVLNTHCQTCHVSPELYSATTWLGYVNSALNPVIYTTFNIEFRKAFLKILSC

Row | SMILES | Ki [nM]
1 | CCC1CCC(NC(=O)C2CC2CN2CCC(c3nn(-c4ccc(C(F)(F)F)cc4)c4ccccc34)CC2)CC1 (stereo not shown) [compound 830133] | 176
2 | C[C@H]1CC[C@H](NC(=O)[C@@H]2C[C@H]2CN2CCN(c3noc4ccsc34)CC2)CC1 [compound 831083] | 3.2
3 | O=C(NCCCn1ccnc1)[C@@H]1C[C@H]1CN1CCC(c2nn(-c3ccc(C(F)(F)F)cc3)c3ccccc23)CC1 [compound 831311] | 38.7
4 | Cn1nc(N2CCN(CC3CC3C(=O)NCCCn3ccnc3)CC2)c2sccc21 (stereo not shown) [compound 831673] | 23.5
5 | O=C(NC1CCN(CC2CCCCC2)CC1)C1CC1CN1CCC(c2noc3ccsc23)CC1 (stereo not shown) [compound 831823] | 2.37
6 | COc1ccccc1CN1CCC(NC(=O)C2CC2CN2CCC(c3noc4ccsc34)CC2)CC1 (stereo not shown) [compound 831991] | 0.722
7 | CN1CCCC1CCNC(=O)C1CC1CN1CCN(c2csc3cc(C(F)(F)F)ccc23)CC1 (stereo not shown) [compound 832217] | 44.1
8 | O=C(NC1CCN(Cc2ccc(F)c(F)c2)CC1)C1CC1CN1CCC(c2noc3ccsc23)CC1 (stereo not shown) [compound 832342] | 0.077
9 | O=C(NC1CCN(Cc2cc(F)ccc2F)CC1)C1CC1CN1CCC(c2noc3ccsc23)CC1 (stereo not shown) [compound 832345] | 1.46

Same assay, conditions: Table 2; unit inferred; read-out: d3Ki

Row | SMILES | Ki [nM]
10 | CC1CCC(NC(=O)C2CC2CN2CCN(c3ccc(F)cc3)CC2)CC1 (stereo not shown) [compound 827196] | 2.35
11 | C[C@H]1CC[C@H](NC(=O)[C@@H]2C[C@H]2CN2CCN(CCc3ccccc3)CC2)CC1 [compound 827198] | 161
12 | C[C@H]1CC[C@H](NC(=O)[C@@H]2C[C@H]2CN2CCN(Cc3ccc4c(c3)OCO4)CC2)CC1 [compound 827201] | 126
13 | C[C@H]1CC[C@H](NC(=O)[C@@H]2C[C@H]2CN2CCN(c3cccc4cccnc34)CC2)CC1 [compound 827253] | 15.8
14 | Cc1ccc(N2CCCN(C[C@@H]3C[C@H]3C(=O)N[C@H]3CC[C@H](C)CC3)CC2)nc1 [compound 827731] | 19.5
15 | CC[C@H]1CC[C@H](NC(=O)[C@@H]2C[C@H]2CN2CCCN(c3ccc(C)cn3)CC2)CC1 [compound 827732] | 10.5
16 | CC[C@H]1CC[C@H](NC(=O)[C@@H]2C[C@H]2CN2CCCN(c3ncccc3Cl)CC2)CC1 [compound 827733] | 1.19
17 | CCC1CCC(NC(=O)C2CC2CN2CCCN(c3ccccn3)CC2)CC1 (stereo not shown) [compound 827800] | 19.7

Same assay, conditions: read-out: D3 Ki

Row | SMILES | Ki [nM]
18 | CC[C@H]1CC[C@H](NC(=O)[C@@H]2C[C@H]2CN2CCN(c3cnccn3)CC2)CC1 [compound 827226] | 16.1
19 | CC[C@H]1CC[C@H](NC(=O)[C@@H]2C[C@H]2CN2CCN(c3cccc(C(F)(F)F)c3)CC2)CC1 [compound 827229] | 1.71
20 | O=C([C@@H]1C[C@H]1CN1CCC(c2noc3ccsc23)CC1)N1CCOCC1 [compound 829461] | 306
21 | CN(CCc1ccccn1)C(=O)C1CC1CN1CCC(c2noc3ccsc23)CC1 (stereo not shown) [compound 829593] | 350
22 | CCC1CCC(NC(=O)C2CC2CN2CCCN(c3ccc4c(C#N)n[nH]c4n3)CC2)CC1 (stereo not shown) [compound 830122] | 67.6
23 | O=C(NCCCN1CCOCC1)[C@@H]1C[C@H]1CN1CCC(c2noc3ccsc23)CC1 [compound 831046] | 15.5
24 | CN(C)CCCNC(=O)[C@@H]1C[C@H]1CN1CCC(c2noc3ccsc23)CC1 [compound 831048] | 11.3
25 | O=C(NCCCc1ccncc1)[C@@H]1C[C@H]1CN1CCC(c2noc3ccsc23)CC1 [compound 831197] | 4.17
26 | O=C(NCCCn1cccn1)[C@@H]1C[C@H]1CN1CCC(c2noc3ccsc23)CC1 [compound 831273] | 68.6
27 | COc1ccc2[nH]cc(CCNC(=O)[C@@H]3C[C@H]3CN3CCC(c4noc5ccsc45)CC3)c2c1 [compound 831275] | 5.15
28 | COc1ccc2c(CCNC(=O)[C@@H]3C[C@H]3CN3CCC(c4noc5ccsc45)CC3)c[nH]c2c1 [compound 831276] | 3.85
29 | O=C(NCCCc1ccccc1)[C@@H]1C[C@H]1CN1CCC(c2cc3ccccc3s2)CC1 [compound 831489] | 16.9
30 | O=C(NCCCn1ccnc1)[C@@H]1C[C@H]1CN1CCN(c2noc3ccsc23)CC1 [compound 831493, 2R-(4-Thieno[2,3-d]isoxazol-3-yl-piperazin-1-ylmethyl)-1 R-cyclopropanecarboxylic acid (3-imidazol-1-yl-propyl)-amide] | 4.95
31 | O=C(NCCCc1ccccc1)[C@@H]1C[C@H]1CN1CCN(c2noc3ccsc23)CC1 [compound 831494] | 28.3
32 | COc1cccc2c(C3CCN(C[C@@H]4C[C@H]4C(=O)N4CCC(Oc5ccc(F)cc5)CC4)CC3)noc12 [compound 831878] | 189
33 | COc1ccc2c(c1)c(N1CCN(C[C@@H]3C[C@H]3C(=O)N[C@H]3CC[C@H](O)CC3)CC1)nn2-c1ccc(C(F)(F)F)cc1 [compound 831949] | 29
34 | O=C(NC1CCC(O)CC1)C1CC1CN1CCN(c2noc3ccsc23)CC1 (stereo not shown) [compound 831955] | 47.3
35 | O=C(C1CC1CN1CCC(c2noc3ccsc23)CC1)N1CCN(CCc2ccccn2)CC1 (stereo not shown) [compound 832001] | 157
36 | Cc1nc(N)sc1CCNC(=O)C1CC1CN1CCC(c2noc3ccsc23)CC1 (stereo not shown) [compound 832045] | 22
37 | O=C(C1CC1CN1CCC(c2noc3ccsc23)CC1)N1CCN(CCC2CCCCC2)CC1 (stereo not shown) [compound 832058] | 24.2
38 | CC1CCC(NC(=O)C2CC2CN2CCC(c3noc4c(C(F)(F)F)cccc34)CC2)CC1 (stereo not shown) [compound 832203] | 4.76
39 | O=C(NCCCN1CCOCC1)[C@@H]1C[C@H]1CN1CCC(c2noc3c(C(F)(F)F)cccc23)CC1 [compound 832273] | 205

Same assay, conditions: read-out: d3Ki

Row | SMILES | Ki [nM]
40 | C[C@H]1CC[C@H](NC(=O)[C@@H]2C[C@H]2CN2CCN(c3cccc(C(F)(F)F)c3)CC2)CC1 [compound 827190] | 2.42
41 | C[C@H]1CC[C@H](NC(=O)[C@@H]2C[C@H]2CN2CCN(c3ccccc3)CC2)CC1 [compound 827191] | 0.724
42 | Cc1ccc(N2CCN(C[C@@H]3C[C@H]3C(=O)N[C@H]3CC[C@H](C)CC3)CC2)c(C)c1 [compound 827193] | 40.6
43 | COc1ccc(N2CCN(C[C@@H]3C[C@H]3C(=O)N[C@H]3CC[C@H](C)CC3)CC2)cc1 [compound 827194] | 24.4
44 | COc1cccc(N2CCN(C[C@@H]3C[C@H]3C(=O)N[C@H]3CC[C@H](C)CC3)CC2)c1 [compound 827195] | 8.18
45 | CC1CCC(NC(=O)C2CC2CN2CCN(c3ncccn3)CC2)CC1 (stereo not shown) [compound 827197] | 27.6
46 | C[C@H]1CC[C@H](NC(=O)[C@@H]2C[C@H]2CN2CCN(c3ccc(Cl)c(C(F)(F)F)c3)CC2)CC1 [compound 827199] | 4.34
47 | Cc1cccc(C)c1N1CCN(C[C@@H]2C[C@H]2C(=O)N[C@H]2CC[C@H](C)CC2)CC1 [compound 827200] | 119
48 | C[C@H]1CC[C@H](NC(=O)[C@@H]2C[C@H]2CN2CCN(c3ccc([N+](=O)[O-])cc3)CC2)CC1 [compound 827205] | 200
49 | CC(=O)c1ccc(N2CCN(C[C@@H]3C[C@H]3C(=O)N[C@H]3CC[C@H](C)CC3)CC2)cc1 [compound 827206] | 59.7
50 | CC[C@H]1CC[C@H](NC(=O)[C@@H]2C[C@H]2CN2CCN(c3cccc(Cl)c3)CC2)CC1 [compound 827212] | 1.2
51 | CC[C@H]1CC[C@H](NC(=O)[C@@H]2C[C@H]2CN2CCN(c3ccc(C)cc3)CC2)CC1 [compound 827213] | 11.1
52 | CC[C@H]1CC[C@H](NC(=O)[C@@H]2C[C@H]2CN2CCN(c3ccccn3)CC2)CC1 [compound 827214] | 6.13
53 | CCOc1ccccc1N1CCN(C[C@@H]2C[C@H]2C(=O)N[C@H]2CC[C@H](CC)CC2)CC1 [compound 827215] | 0.229
54 | CC[C@H]1CC[C@H](NC(=O)[C@@H]2C[C@H]2CN2CCN(c3ccccc3Cl)CC2)CC1 [compound 827216] | 2.16
55 | CC[C@H]1CC[C@H](NC(=O)[C@@H]2C[C@H]2CN2CCN(c3ccccc3OC)CC2)CC1 [compound 827218] | 1.22
56 | CC[C@H]1CC[C@H](NC(=O)[C@@H]2C[C@H]2CN2CCN(c3cccc(C)c3)CC2)CC1 [compound 827219] | 2.63
57 | CC[C@H]1CC[C@H](NC(=O)[C@@H]2C[C@H]2CN2CCN(c3ccc(C(F)(F)F)cn3)CC2)CC1 [compound 827221] | 99.2
58 | CC[C@H]1CC[C@H](NC(=O)[C@@H]2C[C@H]2CN2CCN(c3cnccn3)CC2)CC1 [compound 827226] | 16.1
59 | CC[C@H]1CC[C@H](NC(=O)[C@@H]2C[C@H]2CN2CCN(C(=O)c3ccco3)CC2)CC1 [compound 827228] | 62
60 | CC[C@H]1CC[C@H](NC(=O)[C@@H]2C[C@H]2CN2CCN(c3cccc(C(F)(F)F)c3)CC2)CC1 [compound 827229] | 1.71
61 | CC[C@H]1CC[C@H](NC(=O)[C@@H]2C[C@H]2CN2CCN(c3ccccc3)CC2)CC1 [compound 827230] | 2.09
62 | CC[C@H]1CC[C@H](NC(=O)[C@@H]2C[C@H]2CN2CCN(c3ccc(OC)cc3)CC2)CC1 [compound 827233] | 27.7
63 | CC[C@H]1CC[C@H](NC(=O)[C@@H]2C[C@H]2CN2CCN(c3cccc(OC)c3)CC2)CC1 [compound 827234] | 3.15
64 | CC[C@H]1CC[C@H](NC(=O)[C@@H]2C[C@H]2CN2CCN(c3ccc(F)cc3)CC2)CC1 [compound 827235] | 4.49
65 | CC[C@H]1CC[C@H](NC(=O)[C@@H]2C[C@H]2CN2CCN(c3ncccn3)CC2)CC1 [compound 827236] | 12.9
66 | CC[C@H]1CC[C@H](NC(=O)[C@@H]2C[C@H]2CN2CCN(c3ccc(Cl)c(C(F)(F)F)c3)CC2)CC1 [compound 827238] | 2.48
67 | CC[C@H]1CC[C@H](NC(=O)[C@@H]2C[C@H]2CN2CCN(c3ccc([N+](=O)[O-])cc3)CC2)CC1 [compound 827244] | 197
68 | CC[C@H]1CC[C@H](NC(=O)[C@@H]2C[C@H]2CN2CCN(c3ccc(C(C)=O)cc3)CC2)CC1 [compound 827245] | 43
69 | CC[C@H]1CC[C@H](NC(=O)[C@@H]2C[C@H]2CN2CCN(c3ccc(Cl)c(Cl)c3)CC2)CC1 [compound 828393] | 3.45

Same assay, conditions: the 16th table; read-out: D3 Ki

Row | SMILES | Ki [nM]
70 | O=C(NCCCn1ccnc1)C1(CCN2CCN(c3csc4cc(C(F)(F)F)ccc34)CC2)CC1 [compound 832231, 1-{2-[4-(6-Trifluoromethyl-benzo[b]thiophen-3-yl)-piperazin-1-yl]-ethyl}-cyclopropanecarboxylic acid (3-imidazol-1-yl-propyl)-amide] | 6.93
